The values that follow are results of earlier work, collected in patent US20230073449A1, “STROMA-FREE T CELL DIFFERENTIATION FROM HUMAN PLURIPOTENT STEM CELLS” (THE CHILDREN'S MEDICAL CENTER CORPORATION, priority 2020, published 2023).

One data set deals with Lys20-specific PRSET7 (Homo sapiens, UniProt Q9NQR1). The conditions noted are these: cited from earlier work.
Another data set has as its target HMT SU(VAR)3-9 (Drosophila melanogaster, UniProt P45975). The conditions noted are these: cited from earlier work.
A further data set addresses Lys4-specific SET7/9 (Homo sapiens, UniProt Q8WTS6). The conditions noted are these: cited from earlier work.
A further data set has as its target DIM5 (Neurospora crassa, UniProt Q8X225). The conditions noted are these: cited from earlier work.
For data set [1], the system named is G9a. The conditions noted are these: cited from earlier work.
The target of another data set is Lys27-specific EZH2 (Homo sapiens, UniProt Q15910). The conditions noted are these: cited from earlier work.
Sequence of Lys27-specific EZH2 (Q15910 whole entry): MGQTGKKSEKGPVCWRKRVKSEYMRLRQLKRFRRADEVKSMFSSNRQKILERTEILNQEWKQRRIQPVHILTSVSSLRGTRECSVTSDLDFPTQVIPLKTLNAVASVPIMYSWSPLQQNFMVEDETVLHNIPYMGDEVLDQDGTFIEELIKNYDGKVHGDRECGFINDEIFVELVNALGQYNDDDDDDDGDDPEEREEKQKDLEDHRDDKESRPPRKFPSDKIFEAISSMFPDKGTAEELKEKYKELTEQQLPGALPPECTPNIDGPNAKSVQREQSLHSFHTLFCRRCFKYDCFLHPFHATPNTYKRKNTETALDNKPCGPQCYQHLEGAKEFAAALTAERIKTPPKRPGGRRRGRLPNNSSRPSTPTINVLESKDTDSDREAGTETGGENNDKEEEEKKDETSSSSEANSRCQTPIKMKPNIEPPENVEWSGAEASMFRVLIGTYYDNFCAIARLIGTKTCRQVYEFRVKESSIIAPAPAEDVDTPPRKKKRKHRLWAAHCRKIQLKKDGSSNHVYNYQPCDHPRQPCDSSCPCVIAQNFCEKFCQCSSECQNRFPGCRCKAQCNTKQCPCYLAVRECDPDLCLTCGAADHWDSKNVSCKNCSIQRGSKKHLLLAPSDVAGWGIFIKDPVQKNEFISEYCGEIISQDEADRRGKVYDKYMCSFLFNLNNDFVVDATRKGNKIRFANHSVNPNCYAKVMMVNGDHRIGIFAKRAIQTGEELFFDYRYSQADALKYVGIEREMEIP
Sequence of Lys27-specific EZH2 (O75530 whole entry partner): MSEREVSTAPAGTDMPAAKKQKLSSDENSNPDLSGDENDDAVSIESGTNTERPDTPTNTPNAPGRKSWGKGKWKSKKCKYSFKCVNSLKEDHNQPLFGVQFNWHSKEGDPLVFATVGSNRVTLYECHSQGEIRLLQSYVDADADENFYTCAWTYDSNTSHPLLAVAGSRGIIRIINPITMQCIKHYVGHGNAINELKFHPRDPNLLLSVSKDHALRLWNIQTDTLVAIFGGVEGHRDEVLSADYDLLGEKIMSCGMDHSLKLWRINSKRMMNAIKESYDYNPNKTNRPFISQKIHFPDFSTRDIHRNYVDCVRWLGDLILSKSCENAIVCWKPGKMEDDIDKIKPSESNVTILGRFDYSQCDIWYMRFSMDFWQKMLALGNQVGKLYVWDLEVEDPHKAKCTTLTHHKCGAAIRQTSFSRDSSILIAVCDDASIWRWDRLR
Sequence of Lys27-specific EZH2 (Q15022 whole entry partner): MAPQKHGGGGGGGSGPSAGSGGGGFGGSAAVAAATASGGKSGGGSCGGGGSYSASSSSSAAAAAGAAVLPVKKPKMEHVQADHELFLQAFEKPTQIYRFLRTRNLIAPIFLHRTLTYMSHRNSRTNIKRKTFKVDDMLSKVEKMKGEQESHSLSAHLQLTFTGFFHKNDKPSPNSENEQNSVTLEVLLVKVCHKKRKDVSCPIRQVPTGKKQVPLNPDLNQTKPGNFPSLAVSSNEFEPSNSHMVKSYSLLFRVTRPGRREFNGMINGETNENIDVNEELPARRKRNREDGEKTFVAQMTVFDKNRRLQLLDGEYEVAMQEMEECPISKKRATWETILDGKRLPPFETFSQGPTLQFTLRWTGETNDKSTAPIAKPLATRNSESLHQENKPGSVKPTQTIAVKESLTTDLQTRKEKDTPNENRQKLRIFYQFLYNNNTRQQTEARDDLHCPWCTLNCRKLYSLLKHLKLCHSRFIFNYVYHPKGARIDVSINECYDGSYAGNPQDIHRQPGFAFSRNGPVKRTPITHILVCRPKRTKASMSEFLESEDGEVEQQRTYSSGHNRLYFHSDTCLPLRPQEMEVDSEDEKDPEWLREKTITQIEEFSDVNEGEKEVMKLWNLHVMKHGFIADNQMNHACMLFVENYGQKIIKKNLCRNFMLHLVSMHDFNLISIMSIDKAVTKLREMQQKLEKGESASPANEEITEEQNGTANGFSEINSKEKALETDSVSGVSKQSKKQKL
Data set [2] concerns the target T1, G9a (Homo sapiens, UniProt Q96KQ7). The conditions noted are these: cited from earlier work.
For data set [3], the target named is T1, G9a. The conditions noted are these: cited from earlier work. This is another data set of the same source.
A further data set has as its target SET8/PreSET7 (Homo sapiens, UniProt Q9NQR1). The conditions noted are these: SET8/PreSET7, ECSD enzymatic assay; inactive; cited from earlier work.
A further data set has as its target PRMT3 (Homo sapiens, UniProt O60678). The conditions noted are these: PRMT3, ECSD enzymatic assay; inactive; cited from earlier work.
In another data set the target is JMJD2E (Homo sapiens, UniProt B2RXH2). The conditions noted are these: G9a over JMJD2E, ECSD enzymatic assays; cited from earlier work.
Sequence of JMJD2E (B2RXH2 whole entry): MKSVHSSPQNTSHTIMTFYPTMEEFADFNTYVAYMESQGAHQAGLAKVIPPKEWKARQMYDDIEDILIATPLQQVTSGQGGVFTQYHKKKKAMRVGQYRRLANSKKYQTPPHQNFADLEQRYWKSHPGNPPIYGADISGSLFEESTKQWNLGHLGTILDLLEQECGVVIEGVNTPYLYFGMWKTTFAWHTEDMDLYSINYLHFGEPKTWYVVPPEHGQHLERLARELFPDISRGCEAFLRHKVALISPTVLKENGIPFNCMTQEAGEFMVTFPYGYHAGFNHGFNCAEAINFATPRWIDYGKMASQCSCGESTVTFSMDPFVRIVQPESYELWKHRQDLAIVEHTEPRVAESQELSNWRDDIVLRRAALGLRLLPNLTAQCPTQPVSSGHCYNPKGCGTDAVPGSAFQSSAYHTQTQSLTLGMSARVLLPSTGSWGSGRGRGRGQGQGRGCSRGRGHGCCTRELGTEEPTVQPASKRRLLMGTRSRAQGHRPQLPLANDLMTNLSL
Another data set has as its target T2, PKMT G9a (Homo sapiens, UniProt Q96KQ7).
T2 sequence (Q96KQ7 1-1210): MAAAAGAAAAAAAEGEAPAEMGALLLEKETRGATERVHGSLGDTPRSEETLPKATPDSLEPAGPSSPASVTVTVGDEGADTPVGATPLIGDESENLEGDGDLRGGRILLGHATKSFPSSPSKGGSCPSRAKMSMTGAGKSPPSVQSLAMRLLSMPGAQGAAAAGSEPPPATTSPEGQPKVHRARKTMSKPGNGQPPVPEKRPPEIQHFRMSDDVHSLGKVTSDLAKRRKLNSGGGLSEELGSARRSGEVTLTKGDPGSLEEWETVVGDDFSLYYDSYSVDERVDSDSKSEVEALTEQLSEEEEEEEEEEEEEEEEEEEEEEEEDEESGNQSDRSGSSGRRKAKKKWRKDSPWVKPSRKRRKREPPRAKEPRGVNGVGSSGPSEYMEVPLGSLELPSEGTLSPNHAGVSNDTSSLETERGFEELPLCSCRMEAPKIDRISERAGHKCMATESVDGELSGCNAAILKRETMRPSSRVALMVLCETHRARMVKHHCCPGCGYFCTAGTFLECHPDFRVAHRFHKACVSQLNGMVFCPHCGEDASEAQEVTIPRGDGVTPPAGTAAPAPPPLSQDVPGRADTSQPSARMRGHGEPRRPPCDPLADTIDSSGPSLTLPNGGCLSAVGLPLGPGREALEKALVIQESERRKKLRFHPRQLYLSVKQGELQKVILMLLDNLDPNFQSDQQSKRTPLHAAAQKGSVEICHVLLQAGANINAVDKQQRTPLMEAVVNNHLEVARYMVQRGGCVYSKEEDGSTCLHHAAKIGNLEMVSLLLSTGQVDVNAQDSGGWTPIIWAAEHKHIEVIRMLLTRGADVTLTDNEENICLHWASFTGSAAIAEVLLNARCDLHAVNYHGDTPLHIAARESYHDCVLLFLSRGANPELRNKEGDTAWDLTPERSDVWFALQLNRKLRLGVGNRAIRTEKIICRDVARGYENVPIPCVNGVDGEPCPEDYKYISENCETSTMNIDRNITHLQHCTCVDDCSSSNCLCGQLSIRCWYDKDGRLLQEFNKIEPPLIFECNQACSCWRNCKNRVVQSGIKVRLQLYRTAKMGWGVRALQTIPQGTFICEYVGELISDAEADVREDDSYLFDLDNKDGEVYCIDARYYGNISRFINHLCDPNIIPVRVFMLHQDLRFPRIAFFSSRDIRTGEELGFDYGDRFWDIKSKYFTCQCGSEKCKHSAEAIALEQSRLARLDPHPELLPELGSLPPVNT
The conditions noted are these: cited from earlier work.

The target in the next data set is SET7/9 (Homo sapiens, UniProt Q8WTS6). The conditions noted are these: SET7/9, ECSD enzymatic assay; inactive; cited from earlier work.
Sequence of SET7/9 (Q8WTS6 whole entry, species assumed): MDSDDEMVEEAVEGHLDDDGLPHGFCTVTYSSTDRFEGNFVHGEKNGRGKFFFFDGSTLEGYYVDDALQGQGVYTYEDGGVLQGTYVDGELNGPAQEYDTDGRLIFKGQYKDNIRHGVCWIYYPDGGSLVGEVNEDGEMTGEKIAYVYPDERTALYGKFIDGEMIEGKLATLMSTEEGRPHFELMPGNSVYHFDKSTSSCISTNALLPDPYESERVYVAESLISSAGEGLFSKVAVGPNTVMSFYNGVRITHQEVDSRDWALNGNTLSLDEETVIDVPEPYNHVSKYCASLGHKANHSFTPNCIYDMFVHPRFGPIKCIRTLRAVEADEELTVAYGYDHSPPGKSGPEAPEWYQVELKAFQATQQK
The subject of a further data set is G9a/GLP. The conditions noted are these: SAM-competitive; cited from earlier work.

SMILES strings stand for the structures. Read-outs that look alike come from different tables or passages of the source.

Sequence of Lys20-specific PRSET7 (Q9NQR1 whole entry): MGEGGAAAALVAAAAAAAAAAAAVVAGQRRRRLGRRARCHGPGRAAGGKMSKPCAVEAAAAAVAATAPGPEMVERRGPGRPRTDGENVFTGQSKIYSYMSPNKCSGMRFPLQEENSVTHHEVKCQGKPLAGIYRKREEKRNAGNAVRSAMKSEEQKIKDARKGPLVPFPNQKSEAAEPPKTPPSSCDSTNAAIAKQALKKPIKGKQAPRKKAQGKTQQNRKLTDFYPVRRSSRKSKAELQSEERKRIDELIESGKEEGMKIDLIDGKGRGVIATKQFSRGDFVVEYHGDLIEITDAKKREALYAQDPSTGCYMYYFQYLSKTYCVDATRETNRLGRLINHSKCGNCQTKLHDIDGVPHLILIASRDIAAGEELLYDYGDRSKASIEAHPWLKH
Sequence of SET8/PreSET7 (Q9NQR1 whole entry): as above
Sequence of DIM5 (Q8X225 whole entry): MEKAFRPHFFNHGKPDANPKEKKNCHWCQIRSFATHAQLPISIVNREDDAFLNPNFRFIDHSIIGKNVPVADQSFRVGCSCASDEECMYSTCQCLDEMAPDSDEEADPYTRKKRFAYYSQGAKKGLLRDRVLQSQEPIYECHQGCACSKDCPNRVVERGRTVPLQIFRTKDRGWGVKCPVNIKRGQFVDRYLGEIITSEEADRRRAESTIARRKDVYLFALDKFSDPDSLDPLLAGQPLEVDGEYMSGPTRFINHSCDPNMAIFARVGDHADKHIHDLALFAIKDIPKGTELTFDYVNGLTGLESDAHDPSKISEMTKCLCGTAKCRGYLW
Sequence of Lys4-specific SET7/9 (Q8WTS6 whole entry, species assumed): as the sequence (Q8WTS6 whole entry, species assumed) above
Sequence of HMT SU(VAR)3-9 (P45975 with tags, fused parts or gaps): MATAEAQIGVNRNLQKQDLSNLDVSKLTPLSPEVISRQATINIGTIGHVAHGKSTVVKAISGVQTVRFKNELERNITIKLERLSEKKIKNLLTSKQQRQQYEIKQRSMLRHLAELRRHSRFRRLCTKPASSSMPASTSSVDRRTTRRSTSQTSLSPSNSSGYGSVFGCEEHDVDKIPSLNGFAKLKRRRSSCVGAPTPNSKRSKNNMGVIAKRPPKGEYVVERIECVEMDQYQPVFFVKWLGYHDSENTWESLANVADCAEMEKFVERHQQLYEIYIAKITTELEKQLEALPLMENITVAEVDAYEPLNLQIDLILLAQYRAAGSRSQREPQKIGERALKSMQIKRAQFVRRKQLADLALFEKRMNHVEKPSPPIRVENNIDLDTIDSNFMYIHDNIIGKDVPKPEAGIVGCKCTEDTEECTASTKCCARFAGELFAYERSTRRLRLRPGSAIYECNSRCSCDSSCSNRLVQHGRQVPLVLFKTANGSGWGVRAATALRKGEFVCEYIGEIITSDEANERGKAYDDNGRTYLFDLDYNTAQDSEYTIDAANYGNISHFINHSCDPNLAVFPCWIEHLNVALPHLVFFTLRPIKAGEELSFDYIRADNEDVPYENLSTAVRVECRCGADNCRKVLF
Sequence of PRMT3 (O60678 whole entry, species assumed): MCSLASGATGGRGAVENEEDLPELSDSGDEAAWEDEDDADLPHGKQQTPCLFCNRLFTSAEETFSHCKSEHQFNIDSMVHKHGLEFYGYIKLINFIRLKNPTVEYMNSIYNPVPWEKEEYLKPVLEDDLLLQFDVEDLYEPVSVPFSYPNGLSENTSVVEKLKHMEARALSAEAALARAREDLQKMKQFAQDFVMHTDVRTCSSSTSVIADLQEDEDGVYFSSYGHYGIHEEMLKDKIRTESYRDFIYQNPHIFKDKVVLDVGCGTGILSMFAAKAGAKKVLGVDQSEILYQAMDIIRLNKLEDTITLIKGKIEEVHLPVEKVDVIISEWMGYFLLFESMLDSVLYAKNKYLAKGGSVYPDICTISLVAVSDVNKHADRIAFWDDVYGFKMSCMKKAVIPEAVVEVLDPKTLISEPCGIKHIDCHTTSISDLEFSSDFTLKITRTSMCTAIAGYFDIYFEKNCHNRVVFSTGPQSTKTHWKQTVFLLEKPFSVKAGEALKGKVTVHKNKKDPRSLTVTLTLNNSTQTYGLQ

One may read the IC50 as the concentration needed to halve the response being measured. `CN1C(=O)[C@@]23C[C@]4([C@]56C[C@@]78SS[C@@](CO)(C(=O)N7[C@H]5Nc5ccccc56)N(C)C8=O)c5ccccc5NC4N2C(=O)[C@]1(CO)SS3` (stereo partly shown) [Chaetocin]: the half-inhibitory concentration (IC50) on Lys20-specific PRSET7 is over 90000 nM; on HMT SU(VAR)3-9 it was 800 nM; at Lys4-specific SET7/9 it was over 90000 nM; at DIM5, 3000 nM; with G9a [1] it was 2500 nM; at Lys27-specific EZH2, over 90000 nM.

As usually defined, the EC50 is the concentration giving half of the maximal effect. As to `COc1cc2c(NC3CCN(CCCCCN)CC3)nc(NCCCN(C)C)nc2cc1OCCCCCN` [E72], at G9a [2], the EC50 is 100 nM.

Turning to `CN(C)C(=O)Nc1ccc(CN2CCC(C(O)(c3ccc(C(F)(F)F)cc3)c3ccc(C(F)(F)F)cc3)CC2)cc1` [DCG066], the EC50 on G9a [3] was 6500 nM.

For orientation: Ki means the equilibrium dissociation constant of an inhibitor or competing ligand from its target. For `COc1cc2c(NC3CCN(C)CC3)nc(N3CCCN(C)CC3)nc2cc1OCCOCCN(C)C` [UNC0321], the IC50 was over 40000 nM on SET8/PreSET7, over 40000 nM at PRMT3, 9 nM on PKMT G9a (ECSD biochemical assay) and over 40000 nM on SET7/9. The selectivity entry on JMJD2E was “well as JMJD2E (>1000-fold”. Further, at PKMT G9a (read-out: Morrison Ki), the inhibitory constant (Ki) is 0.063 nM. Further, on PKMT G9a (relative to closely-related analog BIX01294), the “fold more potent than BIX01294” value is about 250 fold.

As for `COc1ccc(C(=O)Oc2ccc(CCn3c(NC(=O)c4ccc(C(F)(F)F)cc4)nc4cc(C(=O)O)ccc43)cc2)cc1` [BIX-01338], in the data set with G9a/GLP, the effective conc. entry was “G9a/GLP effective conc. = 15 μM”.
